Data as given in PMC5289826 (PLoS ONE, 2017).

Tests used:
[1] = target: T1, recombinant human 11β-HSD1 (Homo sapiens, UniProt P28845); assay: 11β-HSD1 enzyme activity in cell lysates (cortisone to cortisol, radiolabeled tracer, TLC); assay type: biochemical; conditions: for 11β-HSD1 Residual activity, % of control at 100 nM: 100 nM compound; for 11β-HSD1 Residual activity, % of control at 100 nM / 11β-HSD1 Residual activity, % of control at 1 μM: lysates of HEK-293 cells, 200 nM cortisone, mean of three experiments; for 11β-HSD1 Residual activity, % of control at 1 μM: 1 μM compound; for activity towards 11β-HSD1, effect of substituent (in words): cell lysates, SAR comparison within the series
T1 construct: expressed in transfected cells
Experimental: (§1) Human embryonic kidney (HEK-293) cells either stably expressing human 11β-HSD1 and H6PDH (HHH7 clone, [38]) or 11β-HSD2 (AT8 clone, [39]), or transiently expressing human 17β-HSD1 or 17β-HSD2, were cultivated in Dulbecco’s modified Eagle medium (DMEM) containing 4.5 g/L glucose, 10% fetal bovine serum, 100 U/mL penicillin, 0.1 mg/mL streptomycin, 1 × MEM nonessential amino acids, and 10 mM HEPES buffer, pH 7.4. Cells were washed with phosphate-buffered saline (PBS), centrifuged for 4 min at 150 × g, and the cell pellets were snap frozen on dry ice and stored at −80°C until further use.
(§2) Cell lysates were resuspended in TS2 buffer (100 mM NaCl, 1 mM EGTA, 1 mM EDTA, 1 mM MgCl2, 250 mM sucrose, 20 mM Tris-HCl, pH 7.4), followed by sonication at 4°C using a Hielscher UP50H ultrasonic processor (0.3 cycle, 20 amplitude %, 20 impulses; Hielscher Ultrasonics GmbH, Teltow Germany). Cell lysates, reaction mixture, and either vehicle (DMSO) or inhibitor were incubated for 10 min at 37°C in a final volume of 22.2 μL. The solvent concentration was 0.1%. […] 11β-HSD2 activity was measured in the presence of 50 nM cortisol and 500 μM NAD^+. An amount of 50 nCi of radiolabeled tracer substrate was included in the experiments. […] The bands of the corresponding steroids were excised, followed by scintillation counting and calculation of the amount of substrate conversion. Data were obtained from at least three independent measurements. Glycyrrhetinic acid (CTRL 1) was used as positive control for 11β-HSD1 and 11β-HSD2 inhibition, apigenin (CTRL 2) for 17β-HSD1, and compound 22 from Vuorinen et al. [40](CTRL 3) for 17β-HSD2 inhibition.

[2] = test system: T2, recombinant human 11β-HSD2; assay: 11β-HSD2 enzyme activity in cell lysates (cortisol to cortisone); assay type: biochemical; conditions: 1 μM compound; lysates of HEK-293 cells; 50 nM cortisol
T2 construct: expressed in transfected cells
Experimental: as §1, §2

T1 sequence (P28845 whole entry): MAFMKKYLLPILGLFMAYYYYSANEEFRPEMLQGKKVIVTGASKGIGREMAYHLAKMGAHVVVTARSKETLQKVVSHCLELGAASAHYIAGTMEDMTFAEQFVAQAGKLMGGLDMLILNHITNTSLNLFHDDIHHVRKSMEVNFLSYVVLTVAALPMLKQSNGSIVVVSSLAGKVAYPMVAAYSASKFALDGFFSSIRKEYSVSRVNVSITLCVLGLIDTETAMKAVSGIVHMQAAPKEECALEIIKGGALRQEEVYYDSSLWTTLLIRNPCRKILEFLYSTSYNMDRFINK

| SMILES | 11β-HSD1 Residual activity, % of control at 100 nM [1] | 11β-HSD1 Residual activity, % of control at 1 μM [1] | activity towards 11β-HSD1, effect of substituent (in words) [1] | IC50 [1] | 11β-HSD2 Residual activity, % of control at 1 μM [2] |
| --- | --- | --- | --- | --- | --- |
| CC1CCN(C(=O)c2cccc(-c3ccccc3Cl)c2)CC1 [6b, (2’-Chloro-[1,1’-biphenyl]-3-yl)(4-methylpiperidin-1-yl)methanone] | 49 % of control | 4 % of control | – | 0.0622 µM | > 90 % of control |
| Cc1ccc(-c2cccc(C(=O)N3CCOC(C)(C)C3)c2)cc1F [3c, (2,2-Dimethylmorpholino)(3’-fluoro-4’-methyl-[1,1’-biphenyl]-3-yl)methanone] | 14 % of control | 1 % of control | – | 0.0279 µM | – |
| CC1CCN(C(=O)c2cccc(-c3ccc(F)cc3)c2)CC1 [4b, (4’-Fluoro-[1,1’-biphenyl]-3-yl)(4-methylpiperidin-1-yl)methanone] | 43 % of control | 4 % of control | – | – | > 90 % of control |
| Cc1ccc(-c2cccc(C(=O)N3CC(C)OC(C)C3)c2)cc1F (stereo not drawn) [3d, (2,6-Dimethylmorpholino)(3’-fluoro-4’-methyl-[1,1’-biphenyl]-3-yl)methanone] | 44 % of control | 4 % of control | – | – | > 90 % of control |
| Cc1ccc(-c2cccc(C(=O)N3CCCC(C)(C)C3)c2)cc1F [3a, (3,3-Dimethylpiperidin-1-yl)(3’-fluoro-4’-methyl-[1,1’-biphenyl]-3-yl)methanone] | 60 % of control | 3 % of control | – | 0.0472 µM | > 90 % of control |
| Cc1ccc(-c2cccc(C(=O)N3CCCCCC3)c2)cc1C [11e, Azepan-1-yl(3’,4’-dimethyl-[1,1’-biphenyl]-3-yl)methanone] | 69 % of control | – | lower activity | – | > 90 % of control |
| Cc1ccc(-c2cccc(C(=O)N3CCCCCC3)c2)cn1 [2e, Azepan-1-yl-(3-(6-methylpyridin-3-yl)phenyl)methanone] | 30 % of control | – | – | 0.046 µM | > 90 % of control |

Continued, in another order:

| 11β-HSD1 Residual activity, % of control at 100 nM [1] | 11β-HSD1 Residual activity, % of control at 1 μM [1] | activity towards 11β-HSD1, effect of substituent (in words) [1] | IC50 [1] | SMILES | 11β-HSD2 Residual activity, % of control at 1 μM [2] |
| --- | --- | --- | --- | --- | --- |
| 89 % of control | 34 % of control | substantial loss of activity | – | CC1CCN(C(=O)c2cccc(-c3cccc(C(N)=O)c3)c2)CC1 [10b, 3’-(4-methylpiperidine-1-carbonyl)-[1,1’-biphenyl]-3-carboxamide] | > 90 % of control |
| 44 % of control | 1 % of control | – | 0.0538 µM | Cc1ccc(-c2cccc(C(=O)N3CCC(C)CC3)c2)cc1F [3b] | > 90 % of control |
| 58 % of control | 3 % of control | – | – | CC1CCN(C(=O)c2cccc(-c3ccc(Cl)cc3)c2)CC1 [5b, (4’-Chloro-[1,1’-biphenyl]-3-yl)(4-methylpiperidin-1-yl)methanone] | > 90 % of control |
| 52 % of control | 1 % of control | – | 0.0477 µM | Cc1ccc(-c2cccc(C(=O)N3CCC(C)CC3)c2)cc1 [1b, (4’-Methyl-[1,1’-biphenyl]-3-yl)(4-methylpiperidin-1-yl)methanone] | > 90 % of control |
| 70 % of control | 8 % of control | lower activity | – | CC1CCN(C(=O)c2cccc(-c3cccc(O)c3)c2)CC1 [8b, (3’-Hydroxy-[1,1’-biphenyl]-3-yl)(4-methylpiperidin-1-yl)methanone] | > 90 % of control |
